The nature of assay [1]: Competitive binding affinity to human muscarinic acetylcholine receptor M2 expressed in […] cell homogenates assessed as W84 pIC50 at 1 nM after 2 hrs by liquid scintillation counting assay.
Assay [2] can be described thus: Competitive binding affinity to human muscarinic acetylcholine receptor M2 expressed in […] cell homogenates assessed as W84 pIC50 at 4 nM after 2 hrs by liquid scintillation counting assay.
Assay [3] is described as follows: Competitive binding affinity to human muscarinic acetylcholine receptor M2 expressed in […] cell homogenates assessed as W84 pIC50 at 2 nM after 2 hrs by liquid scintillation counting assay.
Assay [4] can be described thus: Competitive binding affinity to human muscarinic acetylcholine receptor M2 expressed in […] cell homogenates assessed as W84 pIC50 at 0.4 nM after 2 hrs by liquid scintillation counting assay.
A short description of assay [5]: Competitive binding affinity to human muscarinic acetylcholine receptor M2 expressed in […] cells assessed as W84 pIC50 at 2 nM after 2 hrs by liquid scintillation counting assay.
A short description of assay [6]: Competitive binding affinity to human muscarinic acetylcholine receptor M2 expressed in […] cells assessed as W84 pIC50 at 4 nM after 2 hrs by liquid scintillation counting assay.
The nature of assay [7]: Competitive binding affinity to human muscarinic acetylcholine receptor M2 expressed in […] cells assessed as W84 pIC50 at 8 nM after 2 hrs by liquid scintillation counting assay.
A short description of assay [8]: Competitive binding affinity to human muscarinic acetylcholine receptor M2 expressed in […] cells assessed as W84 pIC50 at 30 nM after 2 hrs by liquid scintillation counting assay.
Assay [9] in a line: Competitive binding affinity to human muscarinic acetylcholine receptor M2 expressed in […] cells assessed as W84 pIC50 at 15 nM after 2 hrs by liquid scintillation counting assay.

IC50 data for two molecules are collected here from BindingDB's records for doi:10.1021/acs.jmedchem.6b01892 (University of Regensburg, 2017).

In general, IC50 refers to the midpoint of a concentration-inhibition curve.

On to `[3H]CC([3H])C(=O)NCc1cc(C(=O)NCCNC(=O)CCc2cn(CCCCC3CCN(CC(=O)N4c5ccccc5NC(=O)c5ccccc54)CC3)cn2)cc(C(=O)NCCNC(=O)CCc2cn(CCCCC3CCN(CC(=O)N4c5ccccc5NC(=O)c5ccccc54)CC3)cn2)c1` (centres undefined), for which the IC50 was determined as 6610 nM in assay [1], 18600 nM in assay [2], 10500 nM in assay [3] and 2690 nM in assay [4].

Take `[3H]CC([3H])C(=O)NCCNC(=O)CCc1cn(CCCCC2CCN(CC(=O)N3c4ccccc4NC(=O)c4ccccc43)CC2)cn1` (centres undefined): the IC50 in [5] is 182 nM; in assay [6], 282 nM; in assay [7], 631 nM; in [8], 2090 nM; in assay [9], 1350 nM.
